Data: patent publication US8309552B2, “Immunomodulating heterocyclic compounds” (Medigene AG, priority 2003, dated 2012)

What follows are compounds tested against T1, CD80-CD28 interaction (Homo sapiens, UniProt P33681) (assay: Homogenous Time Resolved Fluorescence (HTRF) assay, cell free). Conditions: cell free HTRF assay; concentration series 100 μM-1.7 nM; 4 hours at room temperature; read-out: Activity (EC50 in the HTRF assay).
T1 sequence (P33681 35-242 limits assumed): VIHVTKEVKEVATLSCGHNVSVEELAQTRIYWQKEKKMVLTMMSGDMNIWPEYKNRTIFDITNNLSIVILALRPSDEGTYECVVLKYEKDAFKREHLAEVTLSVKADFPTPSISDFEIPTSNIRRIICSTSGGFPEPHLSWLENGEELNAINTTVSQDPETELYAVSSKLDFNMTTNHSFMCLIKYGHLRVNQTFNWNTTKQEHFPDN
Format: binding
How it was run: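 In pH7.8 Tris-HCl/NaCl buffer with 0.1% BSA, a 100 μM-1.7 nM compound series was incubated for 4 h at room temperature with CD28 and CD80 fusions carrying europium and APC via linker antibodies. Time-resolved signals at 665 and 615 nm were read after 340 nm excitation; a C215 Fab swap defined background. EC50 given as banded classes.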

EC50 [nM]	Compound
1000 to 10000	CCC(C)NC(=O)c1ccc(-n2[nH]c3c(nnc4ccccc43)c2=O)cc1 (stereo not drawn) [Example 258]
> 10000	O=C(NCCSCc1c(F)cccc1Cl)c1ccc(-n2[nH]c3c(nnc4ccccc43)c2=O)cc1 [Example 254]
1000 to 10000	O=C(NCCc1ccc(Cl)cc1)c1ccc(-n2[nH]c3c(nnc4c(F)cccc43)c2=O)cc1 [Example 363]
> 10000	O=C(NCCc1cccs1)c1ccc(-n2[nH]c3c(nnc4ccccc43)c2=O)cc1 [Example 255]
< 1000	CN(C)CCCNC(=O)c1ccc(-n2[nH]c3c(nnc4cccc(F)c43)c2=O)cc1 [Example 387]
> 10000	O=C(Nc1ccc(-n2[nH]c3c(nnc4ccccc43)c2=O)cc1)NC1Cc2ccccc2C1 [Example 226]
1000 to 10000	O=C(NC1CONC1=O)c1ccc(-n2[nH]c3c(nnc4ccccc43)c2=O)cc1 (stereo not drawn) [Example 267]

Same assay, conditions: cell-free HTRF, compound concentration series 100 μM-1.7 nM, 4 hours at room temperature; read-out: Activity (EC50 in the HTRF assay)

EC50 [nM]	Compound
< 1000	O=C(NC1CCN(Cc2ccccc2)C1)c1ccc(-n2[nH]c3c(nnc4ccccc43)c2=O)cc1 (stereo not drawn) [Example 94]
1000 to 10000	O=C(NCCCNC(=O)c1ccc(-n2[nH]c3c(nnc4ccccc43)c2=O)cc1)OCc1ccccc1 [Example 42]
1000 to 10000	NC(=O)CNC(=O)Nc1ccc(-n2[nH]c3c(nnc4ccccc43)c2=O)cc1 [Example 157]
< 1000	CCNC(=O)c1ccc(-n2[nH]c3c(nnc4ccccc43)c2=O)cc1 [Example 46]
< 1000	CC1CCCCN1CCCNC(=O)c1ccc(-n2[nH]c3c(nnc4ccccc43)c2=O)cc1 (stereo not drawn) [Example 32]
1000 to 10000	CC(C)(C)OC(=O)NCCCNC(=O)Nc1ccc(-n2[nH]c3c(nnc4ccccc43)c2=O)cc1 [Example 213]
1000 to 10000	CC(CCCC(C)(C)O)NC(=O)Nc1ccc(-n2[nH]c3c(nnc4ccccc43)c2=O)cc1 (stereo not drawn) [Example 137]
1000 to 10000	O=C(Nc1ccc(-n2[nH]c3c(nnc4ccccc43)c2=O)cc1)NC1CCCN(Cc2ccccc2)C1 (stereo not drawn) [Example 197]
> 10000	CC(NC(=O)c1ccc(-n2[nH]c3c(nnc4ccccc43)c2=O)cc1)c1ccccc1 (stereo not drawn) [Example 19]
< 1000	O=C(NCCN1CCOCC1)Nc1ccc(-n2[nH]c3c(nnc4ccccc43)c2=O)cc1 [Example 132]
1000 to 10000	CSCCCNC(=O)Nc1ccc(-n2[nH]c3c(nnc4ccccc43)c2=O)cc1 [Example 161]
1000 to 10000	CC(C)(C)OC(=O)NCCCCCCNC(=O)c1ccc(-n2[nH]c3c(nnc4ccccc43)c2=O)cc1 [Example 117]
1000 to 10000	COC(CNC(=O)c1ccc(-n2[nH]c3c(nnc4ccccc43)c2=O)cc1)OC [Example 106]
1000 to 10000	CCOC(=O)CCC(NC(=O)c1ccc(-n2[nH]c3c(nnc4ccccc43)c2=O)cc1)C(=O)OCC (stereo not drawn) [Example 74]
1000 to 10000	C=C(C)CNC(=O)Nc1ccc(-n2[nH]c3c(nnc4ccccc43)c2=O)cc1 [Example 165]
1000 to 10000	O=C(NCCN1CCCCC1)Nc1ccc(-n2[nH]c3c(nnc4ccccc43)c2=O)cc1 [Example 125]

Same assay, conditions: cell-free HTRF, concentration series 100 μM-1.7 nM, 4 hours at room temperature; read-out: Activity (EC50 in the HTRF assay)

EC50 [nM]	Compound
< 1000	O=C(c1ccc(-n2[nH]c3c(nnc4c(F)cccc43)c2=O)cc1)N1CCCCCC1 [Example 463]
1000 to 10000	O=C(N[C@@H](CO)[C@@H](O)c1ccccc1)c1ccc(-n2[nH]c3c(nnc4c(F)cccc43)c2=O)cc1 [Example 513]
< 1000	CCC(C)(C)NCCCCNC(=O)c1ccc(-n2[nH]c3c(nnc4c(F)cccc43)c2=O)cc1 [Example 480]
< 1000	O=C(NC1CCN(CCC(F)=C(F)F)CC1)c1ccc(-n2[nH]c3c(nnc4c(F)cccc43)c2=O)cc1 [Example 484]
< 1000	O=C(N[C@H]1CC[C@H](O)CC1)c1ccc(-n2[nH]c3c(nnc4c(F)cccc43)c2=O)cc1 [Example 501]
< 1000	CC(O)CCNC(=O)c1ccc(-n2[nH]c3c(nnc4c(F)cccc43)c2=O)cc1 (stereo not drawn) [Example 502]

Same assay, conditions: inhibition of the CD80-CD28 interaction, 4 hours at room temperature; read-out: EC50 activity in the HTRF assay

EC50 [nM]	Compound
< 1000	CN(C)CCCNC(=O)Nc1ccc(-n2[nH]c3c(nnc4ccccc43)c2=O)cc1 [Example 8, N-[3-(dimethylamino)propyl]-N′-[4-(3-oxo-1,3-dihydro-2H-pyrazolo[4,3-c]cinnolin-2-yl)phenyl]urea]
